Tests used:
Assay in all cases: combination Emax (second highest fraction inhibited in the dose matrix, 72 h); higher = more inhibition; extreme values may be limits of the assay
A172 (Glioblastoma) = test system: A172 (Glioblastoma)
Procedure, shortened: (§1)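 Bliss excess equals the observed combination effect minus the expected value EA + EB − EA·EB, where EA and EB are the effects of each agent alone. Combination Emax is the second-highest inhibition within the matrix. Inhibition was scaled from CellTiter-Glo 2.0 luminescence, with 0 set by vehicle wells and 1 by blank wells, after 72 hours of two-drug dosing of cells plated in 1536-well plates.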

[1] = test system: CAL-39 (Other Solid Carcinomas)
Procedure, shortened: as §1

[2] = test system: DOK (Oral Cavity Carcinoma)
Procedure, shortened: as §1

EW-22 (Ewing's Sarcoma) = test system: EW-22 (Ewing's Sarcoma)
Procedure, shortened: as §1

[3] = test system: HCC-827 (Lung Adenocarcinoma)
Procedure, shortened: as §1

HCC38 (Breast Carcinoma) = test system: HCC38 (Breast Carcinoma)
Procedure, shortened: as §1

HuO9 (Osteosarcoma) = test system: HuO9 (Osteosarcoma)
Procedure, shortened: as §1

[4] = test system: JHH-6 (Hepatocellular Carcinoma)
Procedure, shortened: as §1

[5] = test system: KG-1 (Acute Myeloid Leukemia)
Procedure, shortened: as §1

MCF7 (Breast Carcinoma) = test system: MCF7 (Breast Carcinoma)
Procedure, shortened: as §1

[6] = test system: MES-SA (Other Solid Carcinomas)
Procedure, shortened: as §1

MSTO-211H (Mesothelioma) = test system: MSTO-211H (Mesothelioma)
Procedure, shortened: as §1

[7] = test system: NOMO-1 (Acute Myeloid Leukemia)
Procedure, shortened: as §1

[8] = test system: P31-FUJ (Acute Myeloid Leukemia)
Procedure, shortened: as §1

SK-MEL-1 (Melanoma) = test system: SK-MEL-1 (Melanoma)
Procedure, shortened: as §1

[9] = test system: SK-UT-1 (Other Solid Carcinomas)
Procedure, shortened: as §1

[10] = test system: SNU-61 (Colorectal Carcinoma)
Procedure, shortened: as §1

[11] = test system: SW48 (Colorectal Carcinoma)
Procedure, shortened: as §1

[12] = test system: SW948 (Colorectal Carcinoma)
Procedure, shortened: as §1

[13] = test system: TYK-nu (Ovarian Carcinoma)
Procedure, shortened: as §1

Structure (SMILES)	combination Emax (A172 (Glioblastoma))	combination Emax [1]	combination Emax [2]	combination Emax (EW-22 (Ewing's Sarcoma))	combination Emax [3]	combination Emax (HCC38 (Breast Carcinoma))	combination Emax (HuO9 (Osteosarcoma))	combination Emax [4]	combination Emax [5]	combination Emax (MCF7 (Breast Carcinoma))	combination Emax [6]	combination Emax (MSTO-211H (Mesothelioma))	combination Emax [7]	combination Emax [8]	combination Emax (SK-MEL-1 (Melanoma))	combination Emax [9]	combination Emax [10]	combination Emax [11]	combination Emax [12]	combination Emax [13]
COc1cccc2c1C(=O)c1c(O)c3c(c(O)c1C2=O)C[C@@](O)(C(=O)CO)C[C@@H]3O[C@H]1C[C@H](N)[C@H](O)[C@H](C)O1 [Doxorubicin] + Cc1cc2ncnn2cc1Nc1ncc2c(n1)n(C1CCOCC1)c(=O)n2C [AZD7648] (first compound max 1 µM, 7x7, partner max 10 µM)	0.94	0.654	0.697	0.947	0.72	0.555	0.897	0.496	0.365	0.623	0.826	0.813	0.966	0.995	0.593	0.873	0.321	0.94	0.52	0.704
COc1cc2ncnc(Nc3ccc(F)c(Cl)c3)c2cc1OCCCN1CCOCC1 [Gefitinib] + CC(C)n1c(=O)n(C)c2cnc3cc(F)c(-c4ccc(OCCCN5CCCCC5)nc4)cc3c21 [AZD1390] (first compound max 10 µM, 7x7, partner max 0.3 µM)	0.169	0.833	0.382	0.244	0.766	0.109	0.12	0.144	0.182	0.0973	0.0714	0.0343	0.328	0.455	0.43	0.0993	0.18	0.399	0.162	0.197
CS(=O)(=O)CCNCc1ccc(-c2ccc3ncnc(Nc4ccc(OCc5cccc(F)c5)c(Cl)c4)c3c2)o1 [Lapatinib] + C[C@@H](Oc1cc(-c2cnn(C3CCNCC3)c2)cnc1N)c1c(Cl)ccc(F)c1Cl [Crizotinib] (first compound max 10 µM, 7x7, partner max 10 µM)	0.941	1	0.979	0.887	0.896	0.556	0.982	0.683	0.49	0.981	0.813	0.263	0.828	0.957	0.954	0.511	0.697	0.911	0.819	0.719
CC(=O)c1c(C)c2cnc(Nc3ccc(N4CCNCC4)cn3)nc2n(C2CCCC2)c1=O [Palbociclib] + CC1(C)CCC(CN2CCN(c3ccc(C(=O)NS(=O)(=O)c4ccc(NCC5CCOCC5)c([N+](=O)[O-])c4)c(Oc4cnc5[nH]ccc5c4)c3)CC2)=C(c2ccc(Cl)cc2)C1 [Venetoclax] (first compound max 10 µM, 7x7, partner max 1 µM)	0.457	0.255	0.126	0.347	0.168	0.0554	0.406	0.227	0.85	0.339	0.361	0.0513	0.596	0.364	0.242	0.108	0.152	0.313	0.382	0.401
CC(=O)c1c(C)c2cnc(Nc3ccc(N4CCNCC4)cn3)nc2n(C2CCCC2)c1=O [Palbociclib] + Cc1c2c(nn1C)CSCc1cc(n(C)n1)CSc1cc(c3ccccc3c1)OCCCc1c(C(=O)O)n(C)c3c-2c(Cl)ccc13 [AZD5991] (first compound max 10 µM, 7x7, partner max 1 µM)	0.614	0.409	0.311	0.515	0.197	0.192	0.803	0.338	0.894	0.574	0.513	0.144	0.858	0.907	0.262	0.223	0.171	0.409	0.406	0.405
CC(=O)c1c(C)c2cnc(Nc3ccc(N4CCNCC4)cn3)nc2n(C2CCCC2)c1=O [Palbociclib] + Cn1cnc2c(F)c(Nc3ccc(Br)cc3Cl)c(C(=O)NOCCO)cc21 [Selumetinib] (first compound max 10 µM, 7x7, partner max 10 µM)	0.425	0.775	0.5	0.25	0.22	0.139	0.419	0.443	0.481	0.366	0.38	0.137	0.858	0.475	0.83	0.137	0.447	0.626	0.665	0.584
COc1cccc(OCCCN)c1-c1cc(Nc2cnc(C#N)cn2)n[nH]1 [Prexasertib] + C=CCn1c(=O)c2cnc(Nc3ccc(N4CCN(C)CC4)cc3)nc2n1-c1cccc(C(C)(C)O)n1 [AZD1775] (first compound max 1 µM, partner max 1 µM)	0.832	0.694	0.685	0.866	0.603	0.799	0.954	0.599	0.916	0.658	0.892	0.875	1	1	0.605	0.967	0.515	0.834	0.896	0.748
COc1cccc(OCCCN)c1-c1cc(Nc2cnc(C#N)cn2)n[nH]1 [Prexasertib] + CCc1c2c(nc3ccc(O)cc13)-c1cc3c(c(=O)n1C2)COC(=O)[C@]3(O)CC [SN-38] (first compound max 1 µM, 7x7, partner max 0.3 µM)	0.751	0.919	0.627	0.94	0.749	0.753	0.995	0.79	0.925	0.685	0.762	0.808	1	0.979	0.623	0.982	0.698	0.889	0.94	0.861
COc1cccc(OCCCN)c1-c1cc(Nc2cnc(C#N)cn2)n[nH]1 [Prexasertib] + CN(C)CCCOc1ccc(-c2ccc3ncc4c(c3c2)n(C2CCOCC2)c(=O)n4C)cn1 [AZD0156] (first compound max 1 µM, 7x7, partner max 1 µM)	0.699	0.258	0.348	0.898	0.552	0.711	0.785	0.342	0.903	0.741	0.905	0.888	1	0.998	0.605	0.936	0.422	0.767	0.804	0.73
COc1cccc(OCCCN)c1-c1cc(Nc2cnc(C#N)cn2)n[nH]1 [Prexasertib] + C[C@@H]1COCCN1C2=NC(=NC(=C2)C3(CC3)[S@](=N)(=O)C)C4=C5C=CNC5=NC=C4 [AZD6738] (first compound max 1 µM, 7x7, partner max 10 µM)	0.775	0.524	0.43	0.888	0.549	0.723	0.855	0.367	0.931	0.703	0.757	0.852	1	1	0.624	0.926	0.422	0.81	0.821	0.766
COc1cccc(OCCCN)c1-c1cc(Nc2cnc(C#N)cn2)n[nH]1 [Prexasertib] + Cc1cc2ncnn2cc1Nc1ncc2c(n1)n(C1CCOCC1)c(=O)n2C [AZD7648] (first compound max 1 µM, 7x7, partner max 10 µM)	0.728	0.328	0.499	0.89	0.566	0.74	0.778	0.389	0.912	0.682	0.912	0.894	1	1	0.653	0.957	0.466	0.728	0.812	0.739
COc1cccc(OCCCN)c1-c1cc(Nc2cnc(C#N)cn2)n[nH]1 [Prexasertib] + O=C(c1cc(Cc2n[nH]c(=O)c3ccccc23)ccc1F)N1CCN(C(=O)C2CC2)CC1 [Olaparib] (first compound max 1 µM, 7x7, partner max 10 µM)	0.626	0.387	0.418	0.957	0.523	0.677	0.878	0.499	1	0.429	0.809	0.806	1	1	0.596	0.957	0.474	0.658	0.838	0.748
COc1cc2c(cc1OCCCCCOc1cc3c(cc1OC)C(=O)N1C=C(C)C[C@H]1C=N3)N=C[C@@H]1CC(C)=CN1C2=O [SG3199] + O=C(c1cc(Cc2n[nH]c(=O)c3ccccc23)ccc1F)N1CCN(C(=O)C2CC2)CC1 [Olaparib] (first compound max 0.001 µM, 7x7, partner max 10 µM)	0.363	0.0869	0.121	0.894	0.131	0.0919	0.2	0.113	0.289	0.106	0.43	0.124	0.145	0.124	0.134	0.046	0.0451	0.0699	0.185	0.369

From the supplement of paper PMC11061612
